From patent publication US6602517B2, “Dietary supplements for treating inflammation-related diseases” (Metagenics, Inc., priority 1999, dated 2003)

Assay: ORAC assay (inhibition of peroxyl-radical quenching of β-phycoerythrin fluorescence)
Assay type: biochemical
Conditions: for AUC/μg mean: pure samples (100% by weight); for ORAC units (U): pure samples, normalized to Trolox on a weight basis
From the text: Method: In order to determine the antioxidant capacity of the subject phytonutrients, the ORAC assay (Cao, G et al., Free Rad. Biol. Med. 14: 303-311[…]) was utilized. This simple procedure relies on the fact that peroxyl radicals will quench the fluorescence of β-phycoerythrin (β-PE) The addition of an antioxidant capable of scavenging these radicals is able to inhibit fluorescence quenching. Fluorescence is monitored as a function of time and the extent of quenching and its inhibition can be determined by calculating the area under the curve (AUC).
A typical reaction will contain 1.67×10^−8 M β-PE in phosphate buffer and 3×10^−3 M 2,2′-azobis(2-amidinopropane)dihydochloride (AAPH) as well as test material. The reaction is initiated by the addition of the peroxyl-radical generating reagent AAPH. […] The difference, or net protection, is equal to AUCsample−AUCblank, and represents the antioxidant capacity of the sample. […] Where one ORAC unit (U) is defined as the net protection provided by 1 nmol/ml Trolox (i.e., 1 μM). […] The final results are normalized to Trolox on a weight basis.
units=(AUC/μg)test/(AUC/μg)trolox.
To generate the data set forth in the present example, samples were prepared in acetonitrile, sometimes with the aid of sonication to facilitate dissolution. One to five μl of sample was added to each 3 ml cuvette, the reaction initiated with AAPH and fluorescence monitored until the quenching was complete. The predicted value for the mixtures was calculated by using the following equation: […]

| Compound | AUC/μg mean | ORAC units (U) |
| --- | --- | --- |
| Cc1c(C)c2c(c(C)c1O)CCC(C)(C(=O)O)O2 (centres unmarked) [Trolox, reference compound] | 8.9 AUC/μg | 1.00 U |
| COc1cc(/C=C/C(=O)CC(=O)/C=C/c2ccc(O)c(OC)c2)ccc1O [curcumin] | 15.93 AUC/μg | – |
| O=c1c(O)c(-c2ccc(O)c(O)c2)oc2cc(O)cc(O)c12 [quercetin] | 14.45 AUC/μg | 1.62 U |
